Measurements from ChEMBL document CHEMBL1201862, “PubChem BioAssay data set” (2004).
Active and inactive are the calls of the source.

Experiments:
[1] = Counterscreen for inhibitors of Trypanosoma brucei methionyl tRNA synthetase (MetRS): Luminescence-based cell-based high throughput dose response assay to identify compounds that are cytotoxic to Jurkat human T lymphocyte cells.; assay type: functional
[2] = target: T1, Methionyl-tRNA synthetase, putative (Trypanosoma brucei brucei, UniProt Q38C91); assay type: functional, Trypanosoma brucei brucei strain 927/4 GUTat10.1
T1 sequence (Q38C91 whole entry): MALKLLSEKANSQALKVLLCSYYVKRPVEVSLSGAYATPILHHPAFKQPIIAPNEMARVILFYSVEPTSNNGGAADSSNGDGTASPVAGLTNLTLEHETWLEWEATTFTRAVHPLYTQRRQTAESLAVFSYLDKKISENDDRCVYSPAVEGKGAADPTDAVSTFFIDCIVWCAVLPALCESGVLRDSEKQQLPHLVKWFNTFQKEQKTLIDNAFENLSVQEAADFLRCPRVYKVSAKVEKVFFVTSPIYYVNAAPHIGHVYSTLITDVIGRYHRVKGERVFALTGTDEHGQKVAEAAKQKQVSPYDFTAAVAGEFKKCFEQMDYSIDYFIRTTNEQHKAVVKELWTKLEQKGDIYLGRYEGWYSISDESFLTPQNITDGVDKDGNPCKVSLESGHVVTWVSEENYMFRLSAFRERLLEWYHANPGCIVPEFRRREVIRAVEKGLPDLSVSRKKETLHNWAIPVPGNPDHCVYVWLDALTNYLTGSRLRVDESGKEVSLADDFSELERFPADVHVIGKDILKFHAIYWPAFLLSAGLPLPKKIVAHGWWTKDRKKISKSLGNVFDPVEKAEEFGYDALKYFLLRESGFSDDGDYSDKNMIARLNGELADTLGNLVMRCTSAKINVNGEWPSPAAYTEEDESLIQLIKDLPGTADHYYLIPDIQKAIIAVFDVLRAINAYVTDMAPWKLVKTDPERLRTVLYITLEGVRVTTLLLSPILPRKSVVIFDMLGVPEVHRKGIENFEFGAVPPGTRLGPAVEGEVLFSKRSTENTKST

[3] = target: T2, Probable nicotinate-nucleotide adenylyltransferase (Staphylococcus aureus (strain N315), UniProt P65502); assay type: functional, Staphylococcus aureus subsp. aureus N315;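 as to IC50 Mean: confirmatory dose-response retesting of NadD inhibitor hits first found in an ultra-high-throughput screen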
T2 sequence (P65502 whole entry): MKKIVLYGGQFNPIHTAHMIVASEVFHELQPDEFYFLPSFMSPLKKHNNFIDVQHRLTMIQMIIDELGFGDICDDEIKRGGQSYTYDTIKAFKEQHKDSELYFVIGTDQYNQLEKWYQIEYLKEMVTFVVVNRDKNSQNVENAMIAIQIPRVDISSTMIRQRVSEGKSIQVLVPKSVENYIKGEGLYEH

[4] = target: T2, Probable nicotinate-nucleotide adenylyltransferase; assay type: functional, Staphylococcus aureus subsp. aureus N315; details: read-out: IC50_Mean
[5] = Luminescence Cell-Based Dose Retest to Confirm Inhibitors of Cancer Stem Cells. [Related pubchem assays (depositor defined):AID2717, AID2721]; assay type: functional; details: Homo sapiens
cells = assay type: functional
Mu-type opioid receptor = Mu-type opioid receptor (Homo sapiens, UniProt P35372); assay type: functional, cell-based;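 also: U2OS cells with beta-arrestin recruitment to OPRM1 by beta-gal complementation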
Sequence of Mu-type opioid receptor (P35372 whole entry): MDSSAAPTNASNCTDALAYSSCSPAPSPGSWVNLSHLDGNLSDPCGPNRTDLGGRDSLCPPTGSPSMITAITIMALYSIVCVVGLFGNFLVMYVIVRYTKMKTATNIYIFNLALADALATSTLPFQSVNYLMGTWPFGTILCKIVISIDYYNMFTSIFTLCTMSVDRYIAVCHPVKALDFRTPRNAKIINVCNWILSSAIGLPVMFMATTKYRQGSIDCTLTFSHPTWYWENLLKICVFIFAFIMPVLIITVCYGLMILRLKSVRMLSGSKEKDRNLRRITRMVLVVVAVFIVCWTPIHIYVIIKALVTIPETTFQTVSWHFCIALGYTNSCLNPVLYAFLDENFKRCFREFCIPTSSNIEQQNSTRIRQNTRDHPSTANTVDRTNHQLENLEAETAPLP

[6] = THP-1 cell cytotoxicity, dose response, cytotoxicity control for non-replicating M. tuberculosis project (AID 489025); assay type: functional
[7] = target: T3, DNA repair and recombination protein RAD54-like (Homo sapiens, UniProt Q92698); assay: RAD54 Holliday junction migration blockers – biochemical, fluorescence, cherry-picked samples, dose series, confirmation (AID 651657); assay type: functional
T3 sequence (Q92698 whole entry): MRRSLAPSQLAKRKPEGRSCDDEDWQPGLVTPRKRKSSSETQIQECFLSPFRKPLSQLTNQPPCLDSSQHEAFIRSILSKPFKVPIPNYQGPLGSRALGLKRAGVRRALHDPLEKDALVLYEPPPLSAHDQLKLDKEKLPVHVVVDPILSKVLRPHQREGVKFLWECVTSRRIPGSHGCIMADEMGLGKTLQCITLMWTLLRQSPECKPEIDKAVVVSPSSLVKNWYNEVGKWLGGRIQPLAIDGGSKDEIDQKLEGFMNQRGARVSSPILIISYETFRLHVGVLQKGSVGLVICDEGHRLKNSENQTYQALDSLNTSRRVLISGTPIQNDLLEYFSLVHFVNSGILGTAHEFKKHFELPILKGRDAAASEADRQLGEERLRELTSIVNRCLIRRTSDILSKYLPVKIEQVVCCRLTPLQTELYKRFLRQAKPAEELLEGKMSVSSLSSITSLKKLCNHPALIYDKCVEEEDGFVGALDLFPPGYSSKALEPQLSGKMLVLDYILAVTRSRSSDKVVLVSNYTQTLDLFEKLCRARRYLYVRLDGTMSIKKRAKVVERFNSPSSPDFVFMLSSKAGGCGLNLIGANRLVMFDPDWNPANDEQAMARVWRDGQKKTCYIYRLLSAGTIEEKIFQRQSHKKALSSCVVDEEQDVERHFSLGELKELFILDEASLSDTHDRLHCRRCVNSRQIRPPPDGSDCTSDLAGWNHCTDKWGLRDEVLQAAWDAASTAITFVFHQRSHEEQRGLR

[8] = target: 5-hydroxytryptamine receptor 2A (Mus musculus, UniProt P35363); assay type: functional, cell-based;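 also: CHO-K1 cells with tagged receptor and beta-arrestin; agonist potency measured as compound-induced activation of the receptor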
Sequence of 5-hydroxytryptamine receptor 2A (P35363 whole entry): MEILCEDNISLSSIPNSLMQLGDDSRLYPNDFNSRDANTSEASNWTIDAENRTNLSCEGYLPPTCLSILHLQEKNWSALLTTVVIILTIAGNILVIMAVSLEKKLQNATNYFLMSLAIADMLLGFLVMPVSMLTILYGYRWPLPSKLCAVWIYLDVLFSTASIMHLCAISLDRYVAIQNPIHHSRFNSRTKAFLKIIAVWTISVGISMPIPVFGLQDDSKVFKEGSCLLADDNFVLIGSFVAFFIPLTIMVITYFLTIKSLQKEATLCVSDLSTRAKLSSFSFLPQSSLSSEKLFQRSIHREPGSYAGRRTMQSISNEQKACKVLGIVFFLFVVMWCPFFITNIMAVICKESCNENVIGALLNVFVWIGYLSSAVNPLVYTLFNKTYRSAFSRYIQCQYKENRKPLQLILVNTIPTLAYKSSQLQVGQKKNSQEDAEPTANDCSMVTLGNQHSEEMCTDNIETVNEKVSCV

[9] = cytotoxicity toward MDA-MB-231 breast cancer cells – cell-based, CellTiter-Glo luminescence, cherry-pick, cytotoxicity control for RAD54 inhibitor project, dose response (AID 651692); assay type: functional
[10] = Vero E6 cell cytotoxicity, dose response, cytotoxicity control for non-replicating M. tuberculosis project, secondary assay (AID 492998); assay type: functional, VeroE6; details: Vero C1008
[11] = microbe, parasite or virus in culture; assay type: functional; details: Mycobacterium tuberculosis
[12] = HepG2 cell cytotoxicity, dose response, cytotoxicity control for non-replicating M. tuberculosis project (AID 489018); assay type: functional; details: Mycobacterium tuberculosis
[13] = target: T4, DNA repair protein RAD52 homolog (Homo sapiens, UniProt P43351); assay type: functional, biochemical
T4 sequence (P43351 whole entry): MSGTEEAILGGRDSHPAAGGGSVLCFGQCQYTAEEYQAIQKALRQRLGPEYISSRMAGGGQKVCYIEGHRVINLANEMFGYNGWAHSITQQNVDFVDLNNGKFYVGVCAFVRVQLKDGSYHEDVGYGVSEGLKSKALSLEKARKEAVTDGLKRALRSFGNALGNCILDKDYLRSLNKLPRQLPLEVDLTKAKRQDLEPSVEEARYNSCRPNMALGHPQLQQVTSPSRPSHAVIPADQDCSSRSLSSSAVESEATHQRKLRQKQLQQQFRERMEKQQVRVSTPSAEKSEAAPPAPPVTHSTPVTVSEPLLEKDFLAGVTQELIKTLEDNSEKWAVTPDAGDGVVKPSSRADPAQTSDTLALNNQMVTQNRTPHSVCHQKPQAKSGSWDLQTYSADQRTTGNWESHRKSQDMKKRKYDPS

[14] = Luminescence Cell-Based Dose Response HTS to Identify Activators of Luciferase Translation or Activity in H4 […] Cells. [Related pubchem assays: 1829 (Project Summary), 1814 (Primary HTS)]; assay type: functional
[15] = Luminescence Cell-Based Dose Confirmation HTS to Identify Activators of 5'UTR Stem-Loop Driven Alpha-Synuclein mRNA Translation in H4 Neuroglioblastoma Cells. [Related pubchem assays: 1829 (Project Summary), 1814 (Primary HTS)]; assay type: functional
H4 = assay: Luminescence Cell-Based Dose Response HTS to Identify Activators of 5'UTR Stem-Loop Driven Prion Protein mRNA Translation in H4 Neuroglioblastoma Cells. [Related pubchem assays: 1829 (Project Summary), 1814 (Primary HTS)]; assay type: functional; details: Homo sapiens
[16] = Trypanosoma cruzi growth suppression in host cells – NIH3T3 host cells, beta-gal luminescence, confirmation (AID 2044); assay type: functional, cell-based;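 also: intracellular parasites grown in NIH/3T3 mouse fibroblasts as host cells; luminescent beta-galactosidase reporter signal from transgenic T. cruzi replicating inside host cells; inhibitors lower the luminescence signal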
[17] = target: T1, Methionyl-tRNA synthetase, putative; assay type: functional, Trypanosoma brucei brucei strain 927/4 GUTat10.1; remark: listed apart in the source
[18] = NIH3T3 cell viability loss – ATP luminescence, mouse fibroblasts, counter-screen, dose response (AID 2010); assay type: functional, cell-based;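 also: cells exposed to compound for about 90 hours before reading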
[19] = target: T5, Corticotropin-releasing factor receptor 2/Corticotropin-releasing factor-binding protein (Homo sapiens, UniProt P24387+Q13324); assay: activators of CRF receptor 2 with binding protein – uHTS hits, confirmation (AID 602473); assay type: functional; details: read-out: EC50_Mean
T5 sequence (Q13324 whole entry): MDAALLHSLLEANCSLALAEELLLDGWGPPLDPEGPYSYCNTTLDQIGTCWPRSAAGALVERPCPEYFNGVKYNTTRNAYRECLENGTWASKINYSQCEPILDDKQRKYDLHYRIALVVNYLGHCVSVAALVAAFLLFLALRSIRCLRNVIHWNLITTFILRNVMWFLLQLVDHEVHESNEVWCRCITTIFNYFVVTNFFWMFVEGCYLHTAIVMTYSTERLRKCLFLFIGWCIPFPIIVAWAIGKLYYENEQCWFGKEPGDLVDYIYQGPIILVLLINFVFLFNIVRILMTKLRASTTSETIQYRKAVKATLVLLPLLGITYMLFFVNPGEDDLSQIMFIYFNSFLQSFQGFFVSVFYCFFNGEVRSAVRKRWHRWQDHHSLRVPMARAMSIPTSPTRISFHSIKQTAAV
T5 sequence (P24387 whole entry): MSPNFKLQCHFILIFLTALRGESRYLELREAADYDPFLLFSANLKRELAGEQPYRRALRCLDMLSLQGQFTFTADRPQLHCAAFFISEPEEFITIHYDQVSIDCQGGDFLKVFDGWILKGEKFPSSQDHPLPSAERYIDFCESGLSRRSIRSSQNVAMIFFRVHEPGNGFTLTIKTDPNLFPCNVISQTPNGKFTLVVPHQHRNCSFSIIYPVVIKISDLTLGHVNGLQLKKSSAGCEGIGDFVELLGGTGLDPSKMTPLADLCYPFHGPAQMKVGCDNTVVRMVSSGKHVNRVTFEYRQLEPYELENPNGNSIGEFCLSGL

[20] = target: T5, Corticotropin-releasing factor receptor 2/Corticotropin-releasing factor-binding protein; assay: Dose Response confirmation of uHTS hits for small molecule antagonists of the CRF-binding protein and CRF-R2 receptor complex.; assay type: functional; details: read-out: IC50_Mean
Nonstructural protein 1 = Nonstructural protein 1 (Influenza A virus, UniProt Q194T2); assay type: functional, Influenza A virus (A/California/07/2009(H1N1))
Sequence of Nonstructural protein 1 (Q194T2 whole entry): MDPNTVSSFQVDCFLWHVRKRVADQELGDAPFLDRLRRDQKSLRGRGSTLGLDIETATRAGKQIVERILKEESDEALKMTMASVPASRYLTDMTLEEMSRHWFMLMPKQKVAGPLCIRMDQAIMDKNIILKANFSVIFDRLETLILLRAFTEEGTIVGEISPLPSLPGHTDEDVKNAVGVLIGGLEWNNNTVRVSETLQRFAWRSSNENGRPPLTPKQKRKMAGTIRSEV

[21] = blockers of CRF-binding protein–CRF-R2 complex – cell-based, uHTS hits, 384-well, dose response (AID 651639); assay type: functional, Homo sapiens; details: read-out: IC50_Mean

In the case of `Cc1cc2c(c(=O)n1CC1CCCO1)C(c1ccc3c(c1)OCO3)C(C#N)=C(N)O2` (configuration not stated), the IC50 [1] is reported as 83.3 µM (inactive) and the IC50 [2] is reported as 119 µM (inactive).

With `Cc1ccc(-c2cc(-c3ccc(C)o3)nc(N)c2C#N)cc1` the IC50 [3] was 1.62 µM (active) and the IC50 [4] was 2.43 µM (active).

With `O=C1NC[C@H](Cc2ccccc2)N(C[C@@H]2CCCN2C[C@H](Cc2ccccc2)N2C[C@H](Cc3ccc(O)cc3)N(CCc3ccccc3)C(=O)C2=O)C1=O` the IC50 [3] was 6.91 µM (active) and the IC50 [4] was 30.8 µM (active).

For `CCCN(CCC)CCNC(=O)c1cc2c(-c3ccc(Cl)cc3)nn(C)c2s1`, the AC50 [5] was 3.81 µM (active), the IC50 (cells) was 15.5 µM (active) and the EC50 (Mu-type opioid receptor) was 92.5 µM (inactive). The CC50 [6] was 31.6 µM (active), the AC50 [7] was 20.9 µM (active) and the EC50 [8] was 6.58 µM (active). The AC50 [9] was 37.1 µM (active), the CC50 [10] was 16.6 µM (active) and the CC50 [11] was 15.1 µM (active). The CC50 [12] was 11.8 µM (active) and the AC50 [13] was 14.5 µM (active).

In the case of `Cc1ccc(C(=O)c2oc3ccc(Cl)cc3c2NC(=O)CN2CCN(C)CC2)cc1`, the EC50 [14] is reported as > 120 µM (not active), the EC50 [15] is reported as > 120 µM (not active) and the EC50 (H4) is reported as > 120 µM (not active). For the same compound, the AC50 [7] was 11.8 µM (active), the AC50 [9] was 11.5 µM (active) and the CC50 [11] was 14.2 µM (active). The AC50 [13] was 5.97 µM (active).

In the case of `O=C1[C@@H]2Cc3c([nH]c4ccccc34)C(c3cccc([N+](=O)[O-])c3)N2C(=O)CN1C1CCN(Cc2ccccc2)CC1` (some centres not stated), the IC50 [1] is reported as 27.1 µM (inactive), the EC50 [16] is reported as 1.8 µM (active) and the IC50 [17] is reported as 3.18 µM (active). For the same compound, the IC50 [2] was 1.82 µM (active) and the EC50 [18] was 9.77 µM (active).

In the case of `COc1cccc2c1cc1c(=O)n(CC(=O)N3CCC(C)CC3)nc(C)n12`, the EC50 (Mu-type opioid receptor) is reported as 92.5 µM (inactive) and the EC50 [8] is reported as 13.6 µM (inactive).

In the case of `Cc1cc(C)cc(NC(=O)C(OC(=O)c2ccc(NC(=O)CC#N)cc2)c2ccccc2)c1` (configuration not stated), the IC50 [3] is reported as 14.6 µM (active) and the IC50 [4] is reported as 22.3 µM (active).

For `CCOc1ccc(N/N=C2\C(=O)Nn3c2nc2c(c3=O)CCCC2)cc1`, the EC50 [19] was > 53 µM (inactive), the IC50 [20] was 4.73 µM (active) and the IC50 (Nonstructural protein 1) was > 100 µM (active). For the same compound, the IC50 [21] was > 20 µM (inactive).
